Reference: patent US9029337B2, “Modulation of factor 7 expression” (Isis Pharmaceuticals, Inc., priority 2007, dated 2015)
Strand notation (5' to 3'): a small letter for the sugar, then the base; units joined by * are phosphorothioate-linked, units joined directly phosphodiester-linked; [ ] holds rarer units or linkages, { } end groups; capitals alone tell only the bases. e = 2'-O-(2-methoxyethyl) (MOE); [5mC] = 5-methylcytosine; d = 2'-deoxy (DNA)

Columns and labels:
human Factor 7 mRNA [1] = test: Antisense inhibition of human Factor 7 mRNA in HepB3 cells, 50 nM antisense oligonucleotide, lipofectin; format: cell-based; settings: for % Inhibition: lipofectin, approximately 24 hours; for % Inhibition of human Factor 7 mRNA levels: gapmers targeted to nucleobases 4868 to 4899 of SEQ ID NO: 1, Table 8
Summary of the method: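 Percent inhibition, untreated cells as reference: derived from RNA collected about 24 hours post-transfection of 4,000-cell wells, with the human RTS 2927 primer probe set and adjustment for total RNA content (RIBOGREEN®).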

human Factor 7 mRNA [2] = test: Dose-dependent antisense inhibition of human Factor 7 in HepB3 cells, lipofectin; format: cell-based; settings: for percent inhibition of Factor 7: approximately 16 hours; for percent inhibition of Factor 7 mRNA, relative to untreated control cells: HepB3 cells, approx. 16 hours (Table 14)
Description: Cells were plated at a density of 4,000 cells per well and treated with lipofectin reagent with 3.125 nM, 6.25 nM, 12.5 nM, 25 nM, 50 nM, and 100 nM concentrations of antisense oligonucleotide, as indicated in Table 3. After a treatment period of approximately 16 hours, RNA was isolated from the cells and Factor 7 mRNA levels were measured by real-time RT-PCR, as described herein. Human Factor 7 primer probe set RTS 2927 (forward sequence: […], incorporated herein as SEQ ID NO: 164; reverse sequence: […], incorporated herein as SEQ ID NO: 165; probe sequence: TGGGTGGTCTCCGCGGCCX, incorporated herein as SEQ ID NO: 166) was used to measure mRNA levels. Factor 7 mRNA levels were adjusted according to total RNA content as measured by RIBOGREEN®. Results are presented as percent inhibition of Factor 7, relative to untreated control cells.
Cells were plated at a density of 4,000 cells per well and transfected using lipofectin reagent with 6.25 nM, 12.5 nM, 25.0 nM, 50.0 nM, and 100.0 nM concentrations of antisense oligonucleotide, as indicated in Table 7. After a treatment period of approximately 16 hours, RNA was isolated from the cells and Factor 7 mRNA levels were measured by real-time RT-PCR, as described herein. Human Factor 7 primer probe set RTS 2927 was used to measure mRNA levels. Factor 7 mRNA levels were adjusted according to total RNA content as measured by RIBOGREEN®. Results are presented as percent inhibition of Factor 7, relative to untreated control cells.
Cells were plated at a density of 4,000 cells per well and transfected using lipofectin reagent with 3.125 nM, 6.25 nM, 12.5 nM, 25 nM, 50 nM, and 100 nM concentrations of antisense oligonucleotide, as specified in Table 14. After a treatment period of approximately 16 hours, RNA was isolated from the cells and Factor 7 mRNA levels were measured by quantitative real-time PCR. Human Factor 7 primer probe set RTS 2927 was used to measure mRNA levels. Factor 7 mRNA levels were adjusted according to total RNA content, as measured by RIBOGREEN®. Results are presented as percent inhibition of Factor 7, relative to untreated control cells.

[3] = 50 nM antisense oligonucleotide, Factor 7 mRNA by real-time RT-PCR (RTS 2927), relative to untreated control
[4] = Table 1, 50 nM, relative to untreated control cells

Substance	% Inhibition (human Factor 7 mRNA [1]; [3])	percent inhibition of Factor 7 (human Factor 7 mRNA [2]; Table 7, 6.25 nM)	percent inhibition of Factor 7 (human Factor 7 mRNA [2]; Table 7, 12.5 nM)	percent inhibition of Factor 7 (human Factor 7 mRNA [2]; Table 7, 25.0 nM)	percent inhibition of Factor 7 (human Factor 7 mRNA [2]; Table 7, 50.0 nM)	percent inhibition of Factor 7 (human Factor 7 mRNA [2]; Table 7, 100.0 nM)	% Inhibition (human Factor 7 mRNA [1]; [4])	percent inhibition of Factor 7 (human Factor 7 mRNA [2]; Table 3, 3.125 nM)	percent inhibition of Factor 7 (human Factor 7 mRNA [2]; Table 3, 6.25 nM)	percent inhibition of Factor 7 (human Factor 7 mRNA [2]; Table 3, 12.5 nM)	percent inhibition of Factor 7 (human Factor 7 mRNA [2]; Table 3, 25.0 nM)	percent inhibition of Factor 7 (human Factor 7 mRNA [2]; Table 3, 50.0 nM)	percent inhibition of Factor 7 (human Factor 7 mRNA [2]; Table 3, 100.0 nM)	other results
416446 (antisense eG*eG*eT*e[5mC]*eA*d[5mC]*dT*dG*d[5mC]*dA*dG*dT*dA*d[5mC]*dT*eG*e[5mC]*eT*e[5mC]*eA) [compound 416446]	64%	25%	24%	50%	69%	64%	–	–	–	–	–	–	–	–
407936 (antisense eG*eG*e[5mC]*eA*eT*dT*d[5mC]*dG*d[5mC]*d[5mC]*dA*d[5mC]*d[5mC]*dA*dT*eG*e[5mC]*eA*eT*eG) [compound 407936]	–	–	–	–	–	–	91%	45%	77%	79%	86%	91%	90%	–
407900 (antisense e[5mC]*e[5mC]*e[5mC]*e[5mC]*eA*d[5mC]*dA*dA*dT*dT*d[5mC]*dG*dG*d[5mC]*d[5mC]*eT*eT*eG*eG*eG) [compound 407900]	78%	18%	36%	61%	82%	91%	91%	52%	58%	80%	87%	94%	91%	–
416472 (antisense e[5mC]*eA*eG*e[5mC]*e[5mC]*dT*dT*dG*dG*d[5mC]*dT*dT*dT*d[5mC]*dT*e[5mC]*eT*e[5mC]*e[5mC]*eA) [compound 416472]	76%	16%	44%	64%	80%	88%	–	–	–	–	–	–	–	–
416455 (antisense e[5mC]*eG*e[5mC]*e[5mC]*eG*dG*d[5mC]*dT*d[5mC]*dT*dG*d[5mC]*dT*d[5mC]*dA*eT*e[5mC]*e[5mC]*e[5mC]*e[5mC]) [compound 416455]	72%	28%	44%	64%	78%	87%	–	–	–	–	–	–	–	% Inhibition (human Factor 7 mRNA levels) (human Factor 7 mRNA [1]; oligonucleotides targeted to nucleobases 13760 to 13789 of SEQ ID NO: 1 (Table 10)): 51%
416508 (antisense e[5mC]*eG*eA*eG*eT*dT*d[5mC]*dT*dG*d[5mC]*dA*dG*dG*dA*dG*e[5mC]*eG*eG*e[5mC]*e[5mC]) [compound 416508]	67%	42%	51%	71%	79%	89%	–	–	–	–	–	–	–	% Inhibition of human Factor 7 mRNA levels (human Factor 7 mRNA [1]): 67%
407606 (antisense e[5mC]*eT*eG*eG*eT*d[5mC]*d[5mC]*dT*dT*dG*d[5mC]*dA*dG*dG*dA*eG*e[5mC]*e[5mC]*e[5mC]*e[5mC]) [compound 407606]	57%	–	–	–	–	–	89%	20%	0%	49%	55%	83%	84%	–
416449 (antisense eT*eA*eG*eG*eT*dA*dT*dT*dT*dT*dT*d[5mC]*d[5mC]*dA*d[5mC]*eA*eT*eG*eG*eA) [compound 416449]	68%	19%	33%	45%	65%	85%	–	–	–	–	–	–	–	–
407641 (antisense e[5mC]*e[5mC]*eT*eG*eA*dG*dG*d[5mC]*d[5mC]*dA*dG*d[5mC]*dA*dG*dA*eT*e[5mC]*eA*e[5mC]*eG) [compound 407641]	73%	–	–	–	–	–	94%	53%	53%	71%	84%	88%	89%	% Inhibition (human Factor 7 mRNA levels) (human Factor 7 mRNA [1]; oligonucleotides targeted to nucleobases 14707 to 14732 of SEQ ID NO: 1 (Table 11)): 68%
416507 (antisense eG*eG*eT*eT*eA*d[5mC]*dT*dG*dA*dG*d[5mC]*dG*d[5mC]*dG*dG*eA*eA*eG*eA*eA) [compound 416507]	73%	30%	53%	70%	77%	72%	–	–	–	–	–	–	–	–
407910 (antisense eA*eG*eT*e[5mC]*e[5mC]*dT*dT*dG*d[5mC]*dT*dG*d[5mC]*d[5mC]*dA*dT*e[5mC]*e[5mC]*eG*eA*eG) [compound 407910]	72%	–	–	–	–	–	86%	31%	44%	69%	68%	82%	89%	–
422294 (antisense eG*eA*dG*dT*dT*d[5mC]*dT*dG*d[5mC]*dA*dG*dG*dA*dG*d[5mC]*eG*eG*e[5mC]*e[5mC]*eT) [compound 422294]	–	–	–	–	–	–	–	–	–	–	–	–	–	% Inhibition of human Factor 7 mRNA levels (human Factor 7 mRNA [1]): 78%; percent inhibition of Factor 7 mRNA, relative to untreated control cells (human Factor 7 mRNA [2]; 3.125 nM): 9%; percent inhibition of Factor 7 mRNA, relative to untreated control cells (human Factor 7 mRNA [2]; 12.5 nM): 32%; percent inhibition of Factor 7 mRNA, relative to untreated control cells (human Factor 7 mRNA [2]; 25 nM): 61%; percent inhibition of Factor 7 mRNA, relative to untreated control cells (human Factor 7 mRNA [2]; 50 nM): 77%; percent inhibition of Factor 7 mRNA, relative to untreated control cells (human Factor 7 mRNA [2]; 100 nM): 84%; percent inhibition of Factor 7 mRNA, relative to untreated control cells (human Factor 7 mRNA [2]): 21%
416549 (antisense eG*eA*e[5mC]*eA*eA*dT*dG*dG*dT*d[5mC]*dA*dG*dG*dG*d[5mC]*eT*eG*eG*eT*eT) [compound 416549]	68%	38%	44%	63%	73%	78%	–	–	–	–	–	–	–	% Inhibition (human Factor 7 mRNA levels) (human Factor 7 mRNA [1]; oligonucleotides targeted to nucleobases 11830 to 11869 of SEQ ID NO: 1 (Table 9)): 69%
416438 (antisense e[5mC]*eA*eG*eG*eA*dG*d[5mC]*d[5mC]*d[5mC]*d[5mC]*d[5mC]*dA*dT*dT*d[5mC]*eT*eG*eG*e[5mC]*eA) [compound 416438]	63%	11%	33%	56%	75%	82%	–	–	–	–	–	–	–	–
407643 (antisense e[5mC]*eA*e[5mC]*eA*e[5mC]*dA*dT*dG*dG*dA*dG*dT*d[5mC]*dA*dG*e[5mC]*eA*eT*e[5mC]*eG) [compound 407643]	80%	36%	49%	70%	83%	93%	84%	16%	59%	68%	76%	92%	95%	% Inhibition (human Factor 7 mRNA levels) (human Factor 7 mRNA [1]; oligonucleotides targeted to nucleobases 15098 to 15122 of SEQ ID NO: 1 (Table 12)): 69%
